What was measured:
Acetylcholinesterase [1] = molecular target: Acetylcholinesterase (Electrophorus electricus, UniProt O42275)
Description: Inhibition of acetylcholinesterase (AChE) in electric eel (type V-S) by modified radiometric assay

Acetylcholinesterase [2] = molecular target: Acetylcholinesterase (Homo sapiens, UniProt P22303)
Description: Inhibition of acetylcholinesterase (AChE) of human red blood cell (type XIII) by modified radiometric AChE assay

Butyrylcholinesterase = Butyrylcholinesterase (Equus caballus, UniProt Q9N1N9)
Butyrylcholinesterase, sequence (Q9N1N9 whole entry): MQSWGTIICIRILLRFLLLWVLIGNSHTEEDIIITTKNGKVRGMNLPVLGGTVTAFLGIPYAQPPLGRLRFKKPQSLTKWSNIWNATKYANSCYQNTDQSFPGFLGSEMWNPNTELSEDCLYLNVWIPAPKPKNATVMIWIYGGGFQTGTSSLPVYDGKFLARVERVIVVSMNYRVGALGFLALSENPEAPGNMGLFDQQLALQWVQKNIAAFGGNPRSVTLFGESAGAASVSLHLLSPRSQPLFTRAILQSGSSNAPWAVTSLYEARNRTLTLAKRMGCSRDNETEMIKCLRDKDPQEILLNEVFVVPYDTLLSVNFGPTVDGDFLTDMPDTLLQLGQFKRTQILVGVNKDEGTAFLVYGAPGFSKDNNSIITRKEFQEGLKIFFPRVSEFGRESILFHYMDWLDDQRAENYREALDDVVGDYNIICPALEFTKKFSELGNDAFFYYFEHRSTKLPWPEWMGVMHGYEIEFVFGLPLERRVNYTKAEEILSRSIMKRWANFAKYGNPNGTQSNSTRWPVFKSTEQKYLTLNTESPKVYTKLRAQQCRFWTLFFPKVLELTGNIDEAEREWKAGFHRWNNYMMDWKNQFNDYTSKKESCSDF
Description: Inhibition of (BChE) Butyrylcholinesterase of horse serum

Acetylcholinesterase (Electrophorus electricus, UniProt O42275), sequence (O42275 whole entry): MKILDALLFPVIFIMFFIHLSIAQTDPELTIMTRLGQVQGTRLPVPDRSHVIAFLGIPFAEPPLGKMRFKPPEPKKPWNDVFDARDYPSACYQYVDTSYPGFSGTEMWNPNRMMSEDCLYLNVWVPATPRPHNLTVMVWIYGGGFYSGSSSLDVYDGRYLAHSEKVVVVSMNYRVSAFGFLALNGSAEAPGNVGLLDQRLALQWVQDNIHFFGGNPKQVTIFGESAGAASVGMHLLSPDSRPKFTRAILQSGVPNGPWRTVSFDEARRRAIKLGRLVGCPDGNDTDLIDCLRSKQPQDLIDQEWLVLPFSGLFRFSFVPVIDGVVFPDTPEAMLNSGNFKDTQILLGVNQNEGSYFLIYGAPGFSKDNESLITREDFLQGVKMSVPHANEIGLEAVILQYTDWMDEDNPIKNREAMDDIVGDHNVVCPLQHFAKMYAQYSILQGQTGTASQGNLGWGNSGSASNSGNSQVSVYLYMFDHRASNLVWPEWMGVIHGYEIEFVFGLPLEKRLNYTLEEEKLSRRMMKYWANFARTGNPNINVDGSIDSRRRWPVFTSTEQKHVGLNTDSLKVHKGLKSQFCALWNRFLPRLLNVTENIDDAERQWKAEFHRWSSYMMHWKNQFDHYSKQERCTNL
Acetylcholinesterase (Homo sapiens, UniProt P22303), sequence (P22303 whole entry): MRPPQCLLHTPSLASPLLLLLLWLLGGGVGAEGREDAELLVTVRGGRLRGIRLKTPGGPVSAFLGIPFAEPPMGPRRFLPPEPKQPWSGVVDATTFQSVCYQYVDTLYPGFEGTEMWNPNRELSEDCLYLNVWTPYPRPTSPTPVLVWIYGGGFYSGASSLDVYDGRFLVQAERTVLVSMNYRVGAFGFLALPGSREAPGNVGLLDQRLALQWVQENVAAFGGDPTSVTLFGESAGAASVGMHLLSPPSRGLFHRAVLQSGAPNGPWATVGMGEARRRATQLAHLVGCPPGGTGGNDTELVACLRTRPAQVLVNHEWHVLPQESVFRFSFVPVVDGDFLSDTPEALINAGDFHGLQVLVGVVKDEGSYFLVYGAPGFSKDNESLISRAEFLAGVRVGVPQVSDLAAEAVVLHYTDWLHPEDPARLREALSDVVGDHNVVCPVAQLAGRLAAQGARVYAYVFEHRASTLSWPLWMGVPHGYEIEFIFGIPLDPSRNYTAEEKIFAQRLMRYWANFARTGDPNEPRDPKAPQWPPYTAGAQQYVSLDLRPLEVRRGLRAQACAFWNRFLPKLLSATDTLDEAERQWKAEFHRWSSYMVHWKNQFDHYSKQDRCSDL

Compound | IC50 (Acetylcholinesterase [1]) [nM] | IC50 (Acetylcholinesterase [2]) [nM] | IC50 (Butyrylcholinesterase) [nM]
Nc1c2c(nc3ccc(Cl)cc13)CCCC2 | 40 | 743 | 0.7
Nc1c2c(nc3cccc(Cl)c13)C1CCC2C1 (centres undefined) | 6.52 | 42.2 | 15.3
Nc1c2c(nc3ccccc13)C1CCC2C1 (centres undefined) | 11.7 | – | 1.3
Nc1c2c(nc3cc(Cl)ccc13)CCCC2 | 2.87 | – | –
Nc1c2c(nc3cc(Cl)ccc13)C1CCC2C1 (centres undefined) | 2.33 | 4.5 | 21.7
Nc1c2c(nc3ccccc13)CCCC2O (centres undefined) [VELNACRINE] | 59.8 | – | 53.3
Nc1c2c(nc3cccc(Cl)c13)CCCC2 | 4.43 | 9.4 | 12.7
Nc1c2c(nc3c(Cl)cccc13)CCCC2 | 36 | 68.9 | 45
CNC(=O)Oc1ccc2c(c1)[C@]1(C)CCN(C)[C@@H]1N2C [PHYSOSTIGMINE] | – | – | 4670
Nc1c2c(nc3c(Cl)cccc13)C1CCC2C1 (centres undefined) | 493 | 84.3 | 207
